Data reported in patent US7005533B2, “Bisphosphonate derivatives, their preparations and uses” (Universite Paris 13, priority 2001, dated 2006).

How the values were obtained:
[1] = Trypan blue exclusion test (cytotoxicity of BP1 and BP2); type: cell-based; details: even at concentrations above 5 mM
[2] = Toxicity test in tumor-free immunosuppressed mice; type: in vivo; details: one injection per day for one week
Procedure: Tumor-free immunosuppressed mice were treated with BP1 and BP2 at doses ranging from 0.06 to 6 mg per injection and per animal. Mice received one injection per day for one week. Animals were weighed before, during and after treatment.

A 431 tumors [3] = assay: Intratumoral angiogenesis of A 431 tumors (GSL 1 immunohistochemistry, image analysis); type: in vivo, mice; details: observed starting from the lowest doses (0.006 mg/injection)
Procedure: Animals were sacrificed and the tumors excised, then weighed, fixed, embedded in paraffin and sliced. Endothelial cells from tumor blood vessels laid down during tumor angiogenesis were visualized by immunohistochemical methods (GSL 1). Tumor angiogenesis was evaluated by image analysis with NIH image software.

A 431 tumors [4] = assay: In vivo growth of subcutaneous A 431 tumors in immunosuppressed mice; details: for inhibition of the growth of A 431 tumors: 0.6 mg/injection/mouse, twice weekly s.c. near the tumor, after 5 weeks of treatment, P<0.05
Procedure: A 431 cells were injected subcutaneously into immunosuppressed mice. The mice developed tumors within one week. Tumor-bearing mice were assigned randomly to a control group or to treatment groups receiving different concentrations of BP1 and BP2.
Mice received twice weekly by subcutaneous injection near the tumor either 0.1 ml of PBS alone for the controls (n=6), or PBS containing either BP1 or BP2 at the following doses: 0.006 (n=6); 0.06 (n=6) or 0.6 mg/injection (n=6). Tumors were measured weekly and their volume V calculated by the formula: V=(4/3)πR1^2R2 wherein R1 is radius 1 and R2 radius 2, with R1<R2.

[5] = test system: FRCjun MRA, a murine fibrosarcoma cell line; assay: MTT cell proliferation test, FRCjun MRA cells; type: cell-based; details: Mus musculus; 2 mM, after 48 h of culture, FRCjunMRA cells
Procedure: (§1) The bisphosphonates BP1 and BP2 were tested in different cell lines: • FRCjun MRA, a murine fibrosarcoma cell line produced by transfection of FR3T3 cells by the oncogene jun-4, • A 431 human carcinoma cells. These cells harbor a VEGF (vascular endothelial growth factor) autocrine loop and, after implantation in immunosuppressed mice, induce rapid development of highly angiogenic tumors. • MDA MB 435 human breast tumor cells, • HUV-EC-C, transformed human umbilical cord endothelial cells (HUVEC), • BBC, bovine cerebral capillary endothelial cells.
(§2) Cell proliferation in the presence of different concentrations of BP1 or BP2 was measured by an MTT test after 24, 48 and 72 h of culture.

[6] = test system: A 431 human carcinoma cells; assay: MTT cell proliferation test, A 431 cells; type: cell-based; details: 2 mM
Procedure: as §1, §2

[7] = test system: MDA MB 435 human breast tumor cells; assay: MTT cell proliferation test, MDA MB 435 cells; type: cell-based; details: 2 mM, after 48 h of culture
Procedure: as §1, §2

acute hepatitis = assay: Liver histology (HES) in nude mice having an acute hepatitis; type: in vivo; details: 80 mg/kg or 160 mg/kg s.c., twice a week for five weeks
Procedure: The study is carried out on nude mice having an acute hepatitis. The mice are divided in two groups, one being treated with sodium phenylacetate bisphosphonate, whilst the second is not. Phenylacetate bisphosphonate is administered to the treated mice sub-cutaneously (80 mg/kg or 160 mg/kg), twice a week for five weeks. The mice are sacrificed and the liver is histologically analyzed after HES (method of Hematoxiline Eosine Staining).

MCF7-ras cells [8] = assay: DNA degradation (agarose gel electrophoresis), MCF7-ras cells; type: cell-based; details: 10 mM, after 96 hours
Procedure: (§3) The cell apoptosis is confirmed by the method of DNA degradation. MCF7 and MCF7-ras cells are cultivated (5×10^5 cells in T25 flasks). After 24 hours, the cells are washed, and then cultivated in DMEM medium with 10% of foetal calf serum; phenylacetate bisphosphonate (10 mM) is added to one group, and no phenylacetate bisphosphonate is added to the other group.
(§4) After 96 hours, the cell extract containing the fragmented DNA is incubated with 0.5 mg/ml of RNase A at 37° C. for one hour, then with 0.5 mg/ml of proteinase K for one hour at 37° C. After incubation, the fragmented DNA is precipitated by isopropanol and then dissolved in 10 mM of Tris-HCl (pH 8) […], 5% of glycerol and 0.05% bromophenol blue. The fragmented DNA separated by electrophoresis on agarose gel at 1% is marked with ethidium bromide and photographed in UV.

MCF7-ras cells [9] = assay: MCF7-ras cell growth and viability (Trypan blue test); type: cell-based; details: for toxicity (cell viability, Trypan blue): 8 and 10 mM
Procedure: MCF7-ras cells are cultivated (20,000 cells/well), on a dish of 24 wells. After incubation for 24 hours, the medium (DMEM with 10% foetal calf serum) is replaced with the same medium to which are added various concentrations of phenylacetate bisphosphonate (2 mM, 4 mM, 6 mM, 8 mM and 10 mM). The cells are incubated for 1 to 4 days at 37° C. The cell viability is controlled by the Trypan blue test.

MCF7 cells [10] = assay: DNA degradation (agarose gel electrophoresis), MCF7 cells; type: cell-based; details: 10 mM, after 96 hours
Procedure: as §3, §4

MCF7 cells [11] = assay: Apoptosis by Annexine V-FITC / propidium iodide, MCF7 cells; type: cell-based; details: 10 mM, after 4 hours of treatment
Procedure: (§5) In order to determine the nature of the toxicity of sodium phenylacetate bisphosphonate, MCF7 and MCF7-ras cells are cultivated, and then washed after 24 hours, and cultivated for 3 hours in DMEM medium with 10% of foetal calf serum. Phenylacetate bisphosphonate (10 mM) is added to one group but not to the other group. Apoptosis is determined by the test of Annexine V conjugated with FITC antibody. Propidium iodide is used in order to determine early apoptosis (positive staining for Annexine V and negative staining with propidium iodide) and late apoptosis (positive staining with Annexine V and with propidium iodide).

MCF7-ras cells [12] = assay: Reversibility of proliferation inhibition, tritiated thymidine incorporation; type: cell-based; details: 10 days treatment, thymidine after 15 days
Procedure: In order to check the reversibility of the effect of phenylacetate bisphosphonate, MCF7-ras cells have been treated with increasing concentrations of phenylacetate bisphosphonate for 10 days, the medium being changed every two days. The cells are divided in two groups. The DMEM medium supplemented with 10% of foetal calf serum is added to the first group, and the same medium with 10 mM of phenylacetate bisphosphonate is added to the second group, the medium being changed every two days. After 15 days, tritiated thymidine is added during 4 hours and the radioactivity of the suspension is determined by using a beta liquid scintigraphic counter (Beckman).

MCF7-ras tumors [13] = assay: Anti-angiogenic effect in MCF7-ras tumors, GSL1 lectin method; type: in vivo, mice
Procedure: The anti-angiogenic was verified by the GSL1 lectin method.
By using GSL1 lectin, angiogenesis is determined and identified by the red coloration staining of endothelial cells with anti-GSL1 antibody. It is noted that this angiogenesis is inhibited by the treatment of the tumors with phenylacetate bisphosphonate. This effect is partial but important (80%) at the 80 mg/kg dose. and complete at 160 mg/kg.

MCF7-ras cells [14] = assay: Apoptosis by Annexine V-FITC / propidium iodide, MCF7-ras cells; type: cell-based; details: 10 mM, after 4 hours of treatment
Procedure: as §5

MCF7-ras tumors [15] = assay: In vivo antitumor effect on MCF7-ras tumors in female athymic nude mice
Procedure: Inoculation of 4×10^6 MCF7-ras cells in female athymic nude mice is made sub-cutaneously in a 0.1 ml volume of DMEM, which induces 70% of tumors after three weeks.
Treatment with phenylacetate bisphosphonate begun when the mean volume of the tumors was 550 mm^3. The animals are divided in two groups, on receiving phenylacetate bisphosphonate, and the other no. Phenylacetate bisphosphonate is injected sub-cutaneously and peritumorally, twice a week, during 5 weeks, and the doses are 80 mg/kg (5 cases) and 160 mg/kg (6 cases).

MCF7-ras tumors [16] = assay: Pro-apoptotic effect in MCF7-ras tumors, M30 antibody staining; type: in vivo, mice
From the text: Further, the proapoptotic effect of phenylacetate bisphosphonate is confirmed by the technique of antibody staining. The staining of apoptotic cells is made by the M30 antibody which recognises the specific site of caspases on the cytokeratine 18 filaments produced by the epithelial cells. Such filaments rapidly aggregate in the cells in early apoptosis, by hyperphosphorylation of cytokeratines. By this cytoplasmic staining, granular structures are observed inside the cytoplasm, which corresponds to cells in late apoptosis.

In the case of O=P(O)(O)C(O)(Cc1ccccc1)P(=O)(O)O [BP1, reference compound], the “cytotoxicity (trypan blue exclusion)” value [1] is reported as “do not induce cytotoxicity”, the “signs of toxicity such as hair loss, diarrhea, infection or anemia” value ([2]; doses less than 6 mg/injection) is reported as “no signs of toxicity” and the “inhibition of intratumoral angiogenesis (endothelial cell area per unit of area)” value (A 431 tumors [3]) is reported as “significant decrease in endothelial cell area per unit of area”. For the same molecule, the “inhibition of the growth of A 431 tumors” value (A 431 tumors [4]) was 40%.

With COP(=O)(O)C(O)(Cc1ccccc1)P(=O)(O)OC (centres unmarked) [BP2] the inhibition at 2000 µM [5] was 40%, the “cytotoxicity (trypan blue exclusion)” value [1] was “do not induce cytotoxicity” and the “signs of toxicity such as hair loss, diarrhea, infection or anemia” value ([2]; all doses tested (0.06–6 mg/injection)) was “no signs of toxicity”. The “inhibition of intratumoral angiogenesis (endothelial cell area per unit of area)” value (A 431 tumors [3]) was “significant decrease in endothelial cell area per unit of area”, the “inhibition of the growth of A 431 tumors” value (A 431 tumors [4]) was 56% and the “comparative in vivo efficacy” value (A 431 tumors [4]; A 431 tumors in mice) was “greater efficacy than BP1”. The inhibition at 2000 µM ([6]; after 48 h of culture) was 30%, the inhibition at 2000 µM ([6]; after 72 h, P<0.05) was 80% and the inhibition at 2000 µM [7] was 60%.

With O=P(O)(O)C(O)(Cc1ccccc1)P(=O)(O)O [phenylacetate bisphosphonate] the “hepatic toxicity noted in treated mice” value (acute hepatitis) was 4 cases out of 5, the “degradation of DNA” value (MCF7-ras cells [8]) was “dramatic degradation of DNA” and the “toxicity (cell viability, Trypan blue)” value (MCF7-ras cells [9]; by the fourth day of culture) was 50–60%. The “toxicity (cell viability, Trypan blue)” value (MCF7-ras cells [9]; three first days of culture) was 10%, the “effect on cell growth” value (MCF7-ras cells [9]; concentrations lower than 6 mM, three first days of culture) was “cytostatic” and the “degradation of DNA” value (MCF7 cells [10]) was “dramatic degradation of DNA”. For the same molecule, the “percentage of cells in late apoptosis” value (MCF7 cells [11]; MCF7 cells) was 22%, the “percentage of cells in early apoptosis” value (MCF7 cells [11]; MCF7 compared with MCF7-ras) was “almost identical in the two cell types” and the “reversibility of the inhibition of cell proliferation” value (MCF7-ras cells [12]; dose above 4 mM) was “irreversible”. The “reversibility of the inhibition of cell proliferation” value (MCF7-ras cells [12]; dose of 2 mM) was “partially reversible”, the “inhibition of tumor angiogenesis” value (MCF7-ras tumors [13]; 80 mg/kg dose) was 80% and the “inhibition of tumor angiogenesis” value (MCF7-ras tumors [13]; 160 mg/kg) was “complete”. The “percentage of cells in late apoptosis” value (MCF7-ras cells [14]; MCF7-ras cells) was 53%, the “percentage of cells in early apoptosis” value (MCF7-ras cells [14]; MCF7-ras compared with MCF7) was “almost identical in the two cell types” and the “tumor growth when the treatment is stopped” value (MCF7-ras tumors [15]; 80 mg/kg dose) was “tumor growth relapsed is observed”. The “tumor growth when the treatment is stopped” value (MCF7-ras tumors [15]; 160 mg/kg dose) was “blocked for at least three weeks”, the “inhibition of the growth of the tumors” value (MCF7-ras tumors [15]; 80 and 160 mg/kg s.c. peritumorally, twice a week, 5 weeks, at the end of the treatment) was “irreversible and dose dependent” and the “toxic effect in vivo” value (MCF7-ras tumors [15]; even when the treatment is applied during a long period of time) was “without any toxic affect”. For the same molecule, the “proliferation of MCF7-ras cells and growth of mammary tumors in vivo” value (MCF7-ras tumors [15]; first five or six weeks of treatment) was “irreversibly blocks”, the “immunohistologic analysis of the tumors: what the decrease in tumor growth is related to” value (MCF7-ras tumors [15]; treated MCF7-ras tumors) was “induction of apoptosis, to a sharp decrease of angiogenesis of the tumor and induction of fibrose in the tumor” and the “state of tumor cells (M30 / cytokeratine 18 staining)” value (MCF7-ras tumors [16]; 80 mg/kg dose) was “apoptosis”. For the same molecule, the “state of tumor cells (M30 / cytokeratine 18 staining)” value (MCF7-ras tumors [16]; 160 mg/kg dose) was “aponecrosis”.
